Test results as given in paper PMC6367362, “MD001, a Novel Peroxisome Proliferator-activated Receptor α/γ Agonist, Improves Glucose and Lipid Metabolism” (Scientific Reports, 2019).

How the values were obtained:
[1] = tested on: differentiated C2C12 myotubes; experiment: qRT-PCR gene expression in differentiated C2C12 myotubes; type: cell-based, mouse; conditions: 24 h
Procedure: (§1) Figure 3 MD001 promotes glucose consumption by induction of GLUT expression. HepG2 (A), differentiated 3T3-L1 adipocytes (B), and differentiated C2C12 myotubes (C) were treated with vehicle, MD001 (10, 50 μM), or rosiglitazone (rosi, 10 μM) for 24 h; glucose consumption was examined as described in the Methods section. Cells were harvested for total RNA isolation. Relative expression levels of GLUT2 (D) and GLUT4 (E,F) were quantitated using qRT-PCR. *, **, and ^† vs. vehicle. Data represent the mean ± SD of three independent experiments. *P < 0.05, **P < 0.01, and ^†P < 0.01.
(§2) Figure 4 MD001 stimulates fatty acid oxidation in vitro. […] Relative gene expressions were analysed by qRT-PCR. HepG2 (D), differentiated 3T3-L1 adipocytes (E), and differentiated C2C12 myotubes (F) were treated with vehicle, MD001 (10 μM), or WY14643 (WY) (10 μM) for 24 h and the fatty acid oxidation rate was analysed as described in the Methods section. […]
(§3) Total RNA was isolated using an RNeasy kit (Qiagen, Germantown, MD, USA) according to the manufacturer’s instructions. Complementary DNA (cDNA) was synthesised by reverse transcription using 0.5 μg of total RNA, and quantitative RT-PCR was performed using Power SYBR Green PCR Master Mix (ABI Thermo Fisher Scientific, Foster City, CA, USA) on a StepOne 48-well real-time PCR system (ABI/Thermo Fisher Scientific). […]

[2] = biological target: T1, PPARα (Homo sapiens, UniProt Q07869); experiment: SPR analysis of binding to immobilised HA-PPARα; conditions: MD001 31.25-500 μM
T1 construct: HA; made in house
T1 sequence (Q07869 1-468): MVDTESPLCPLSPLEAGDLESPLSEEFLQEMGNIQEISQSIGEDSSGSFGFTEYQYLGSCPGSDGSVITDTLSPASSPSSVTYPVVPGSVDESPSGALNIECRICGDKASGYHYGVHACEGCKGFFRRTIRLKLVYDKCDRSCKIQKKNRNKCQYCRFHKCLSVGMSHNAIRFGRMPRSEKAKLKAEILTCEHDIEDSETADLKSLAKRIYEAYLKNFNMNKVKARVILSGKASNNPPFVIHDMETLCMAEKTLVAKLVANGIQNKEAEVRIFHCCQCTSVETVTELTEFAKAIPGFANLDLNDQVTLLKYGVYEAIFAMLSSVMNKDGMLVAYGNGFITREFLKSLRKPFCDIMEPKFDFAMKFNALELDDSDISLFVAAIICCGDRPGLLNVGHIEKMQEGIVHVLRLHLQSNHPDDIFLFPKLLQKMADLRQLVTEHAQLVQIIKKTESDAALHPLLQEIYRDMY
Procedure: SPR analysis was performed using a Reichert SR7500DC (Reichert Technologies, Depew, NY, USA). HA-PPARα, HA-PPARβ/δ, and HA-PPARγ were purified as previously described[23] and was immobilised on CMDH chips (Reichert Technologies) according to the manufacturer’s instructions. MD001 was loaded in a dose-dependent manner (31.25, 62.5, 125, 250, and 500 μM) for the SPR assay. The dissociation constant (KD) value was determined using the Scrubber2 program (Informer Technologies, Inc., Los Angeles, CA, USA).

[3] = tested on: differentiated 3T3-L1 adipocytes; experiment: qRT-PCR gene expression in differentiated 3T3-L1 adipocytes; type: cell-based, mouse; conditions: 24 h
Procedure: as §1, §2, §3

[4] = tested on: wild type C57BL/6J mice; experiment: Oral once-daily administration to wild type C57BL/6J mice; type: in vivo, mouse
Procedure: Supplementary Figure S6. MD001 has no influence on food intake of mice. (A) Wild type C57/BL6 mice were orally administered with vehicle, rosiglitazone (20 mg/kg), or MD001 (20 mg/kg) once a day for 60 days. The change in their body weight was evaluated and presented as gain of body weight per group (n = 5 - 6 in each group). (B) The 3-day food intake in wild type C57/BL6 mice or db/db mice during the administration of the indicated drug was measured three times (n = 5 - 6 in each group). The data represent the mean ± SD.
C57/BL6 mice. (A-H) Wild type C57/BL6 mice were administered with vehicle, rosiglitazone (20 mg/kg), or MD001 (20 mg/kg) (n = 5 in each group) for 60 days, and their blood metabolites were measured. (B) Blood glucose level was examined during the administration of the […]

[5] = tested on: wild type C57BL/6J mice; experiment: Toxicity study in wild type C57BL/6J mice; type: in vivo, mouse; conditions: wild type C57/BL6 mice, 50 or 100 mg/kg MD001 for eight weeks
From the text: Supplementary Table S4. Laboratory findings in control and MD001-treated mice
Results are expressed as the mean ( ± SD).
ALT, alanine transaminase; AST, aspartate transaminase; BUN, blood urea nitrogen; WBC, white blood cells.
Supplementary Table S5. Crystal data and structure refinement for 4a
Identification code exp_524
Empirical formula C27H22O5
Crystal system monoclinic

[6] = wild type C57BL/6J mice, 20 mg/kg, 60 days, compared to vehicle
[7] = wild type C57BL/6 mice, 20 mg/kg, 60 days

Cc1c(O)cc(O)c2c(-c3ccccc3)c(C(=O)/C=C/c3ccccc3)c(=O)oc12 [MD001]
expression levels of ACOX and CPT ([1]; 10 μM): significantly increased
expression of glucose transporter GLUT4 ([1]; 10, 50 μM): significantly increased
Kd [2]: 9.55 ± 0.8 µM
expression levels of ACOX and CPT ([3]; 10 μM): significantly increased
expression of glucose transporter GLUT4 ([3]; 10, 50 μM): significantly increased
body weight gain ([4]; wild type C57BL/6J mice, once a day for 60 days): no induction of body weight gain
H&E staining of adipose tissue, skeletal muscle, and liver ([4]; wild type C57BL/6J mice, 20 mg/kg once a day for 60 days): no differences
blood glucose [4, 6]: did not have any effect
levels of plasma lipids [4, 6]: did not have any effect
blood ALT levels [4, 7]: no effect
blood AST levels [4, 7]: no effect
liver and kidney toxicities [5]: not observed
white blood cell counts and haemoglobin (toxicology study) [5]: no differences
body weight change ([5]; data not shown): no significant differences
